Data on 26 molecules can be found in patent US20250282735A1, “BICYCLE COMPOUNDS AS TEAD INHIBITOR” (DONG-A ST CO., LTD., priority 2022, published 2025).

Usually IC50 stands for the point on the concentration scale where inhibition reaches its midpoint. Read a low IC50 as greater potency.

One experiment concerns MSTO-211H cells. Description: Proliferation assay (EdU incorporation), MSTO-211H. The class given is cell-based. The note with it: Homo sapiens, 72 h, YAP-driven MSTO-211H (LATS1 mutation), 3 days with inhibitor, 1% serum. As to the method:
The anti-proliferative activity of TEAD inhibitors was evaluated in cells with different properties for YAP; “YAP-driven” cells (MSTO-211H, NCI-H226) in which YAP located in the nucleus and “YAP-independent” cells (OCM1, NCI-H28) where YAP located in the cytoplasm. […] TEAD inhibitors were evaluated with cell lines with these YAP profiling and mutational status.
The next day, replace it with cell starvation medium containing 1% serum. After one day of growth in the starvation medium, the cells were incubated for 3 days with TEAD inhibitors in a concentration range of 0.01-10 μM. After 3 days, EdU (Invitrogen) at a concentration of 10 µM was added to the starvation medium and incubated for an additional 24 hours. After removing the starvation medium remaining in each well, wash the wells with PBS. Cells were fixed with 4% paraformaldehyde (Electron microscopy sciences) at room temperature for 20 minutes. After removing the fix solution remaining in each well, wash the wells with PBS and the cells were permeabilized for 40 minutes by adding 0.5% triton X-100 (Sigma Aldrich). After removing the permeabilization solution remaining in each well, the EdU labeling was performed according to the instructions of the manufacturer's instructions (Click-iT™ Cell Reaction Buffer Kit, Invitrogen). After the Click reaction for EdU labeling, nuclei were stained with […] (Thermo Scientific) for total cell count analysis. After plate preparation for detection, Image acquisition was performed using the ImageXpress Micro XLS. The acquired images were analyzed using MetaXpress software (molecular devices). Through this experimental method, it was possible to confirm the inhibitory activity of TEAD inhibitors by detection EdU incorporated into proliferating cells.
IC50 for cell proliferation inhibition activity are shown in the Table 2 below and designated within the following ranges. [+++: ≤0.1 μM, ++: >0.1 μM to ≤1 μM, +: >1 μM to ≤10μ, −: >10 μM]

In experiment [1] the test system is TEAD reporter-containing human breast cancer cell line MCF7. Kind of experiment: TEAD reporter (luciferase) assay. The class given is cell-based. The note with it: TEAD reporter MCF7 cells, 24 hours treatment, 1% serum media. The method, then:
The TEAD reporter-containing human breast cancer cell line MCF7 (60618, BPS bioscience) was cultured according to the manufacturer's instructions. Cells were plated in 96-well white plates at a density of 30,000 per well and incubated overnight. The following day cells were treated with small molecules in 1% serum media (0.1% v/v DMSO). After 24 hours of the treatment, cell viability was evaluated by using CCK-8 reagent (CK04, Dojindo) and measuring absorbance at 450 nm. Then, the assay for luciferase activity was performed using Dual-Glo® Luciferase Assay System (Promega, E2940) following the manufacturer's instructions. Luminescence intensity was measured and the potency of the compounds was determined by IC50 value generated from non-linear regression analysis of the dose-response curves.
IC50 for luciferase activity are shown in the Table 1 below and designated within the following ranges. [+++: ≤0.1 μM, ++: >0.1 μM to ≤1 μM, +: >1 μM to ≤10 μM, −: >10 μM]

For the molecule `C=CC(=O)Nc1ccc2c(c1)c(/C=C/C1CCC(F)(F)CC1)nn2C(C)C` [Compound 5, (E)-N-(3-(2-(4,4-Difluorocyclohexyl)vinyl)-1-isopropyl-1H-indazol-5-yl)acrylamide], the concentration for half-maximal inhibition (IC50) (in the experiment on MSTO-211H cells; in experiment [1]) was 100 to 1000 nM throughout.

For the molecule `C=CC(=O)Nc1cnc2c(c1)c(/C=C/c1ccc(Cl)cc1)cn2C1CCCC1` [Compound 10, (E)-N-(3-(4-Chlorostyryl)-1-cyclopentyl-1H-pyrrolo[2,3-b]pyridin-5-yl)acrylamide], the IC50 lay within 100 to 1000 nM with MSTO-211H cells and 1000 to 10000 nM in experiment [1].

For `C=CC(=O)Nc1ccc2c(c1)c(C1=CCC(F)(F)CC1)cn2C` [Compound 23, N-(3-(4,4-Difluorocyclohex-1-en-1-yl)-1-methyl-1H-indol-5-yl)acrylamide], the IC50 is 100 to 1000 nM in the experiment on MSTO-211H cells and ≤ 100 nM in experiment [1].

`C=CC(=O)Nc1ccc2c(c1)c(/C=C/c1ccc(Cl)cc1)cn2CC` [Compound 26, (E)-N-(3-(4-Chlorostyryl)-1-ethyl-1H-indol-5-yl)acrylamide]: the half-inhibitory concentration (IC50) (in the experiment on MSTO-211H cells; in experiment [1]) was 100 to 1000 nM in each case.

For the molecule `C=CC(=O)Nc1ccc2c(c1)c(/C=C/C1CCC(F)(F)CC1)cn2C(C)C` [Compound 27, (E)-N-(3-(2-(4,4-Difluorocyclohexyl)vinyl)-1-isopropyl-1H-indol-5-yl)acrylamide], the IC50 (in the experiment on MSTO-211H cells; in experiment [1]) was 100 to 1000 nM throughout.

For `C=CC(=O)Nc1cnc2c(c1)c(/C=C/C1CCC(F)(F)CC1)nn2CC` [Compound 32, (E)-N-(3-(2-(4,4-Difluorocyclohexyl)vinyl)-1-ethyl-1H-pyrazolo[3,4-b]pyridin-5-yl)acrylamide], the 50% inhibitory concentration (IC50) was 100 to 1000 nM in the experiment on MSTO-211H cells and ≤ 100 nM in experiment [1].

Turning to `C=CC(=O)Nc1cnc2c(c1)c(/C=C/c1ccc(Cl)cc1)nn2CC` [Compound 33, (E)-N-(3-(4-Chlorostyryl)-1-ethyl-1H-pyrazolo[3,4-b]pyridin-5-yl)acrylamide], the IC50 with MSTO-211H cells was ≤ 100 nM; in experiment [1], 1000 to 10000 nM.

With `C=CC(=O)Nc1cnc2c(c1)c(/C=C/C1CCC(F)(F)CC1)nn2C(C)C` [Compound 34, (E)-N-(3-(2-(4,4-Difluorocyclohexyl)vinyl)-1-isopropyl-1H-pyrazolo[3,4-b]pyridin-5-yl)acrylamide], the IC50 with MSTO-211H cells is 100 to 1000 nM; in experiment [1], ≤ 100 nM.

In the case of `C=CC(=O)Nc1cnc2c(c1)c(/C=C/c1ccc(Cl)cc1)nn2C(C)C` [Compound 35, (E)-N-(3-(4-Chlorostyryl)-1-isopropyl-1H-pyrazolo[3,4-b]pyridin-5-yl)acrylamide], the concentration for half-maximal inhibition (IC50) (in the experiment with MSTO-211H cells; in experiment [1]) was 100 to 1000 nM throughout.

For `C=CC(=O)Nc1cc(F)c2c(c1)c(/C=C/C1CCC(F)(F)CC1)cn2C` [Compound 36, (E)-N-(3-(2-(4,4-Difluorocyclohexyl)vinyl)-7-fluoro-1-methyl-1H-indol-5-yl)acrylamide], the IC50 in the experiment on MSTO-211H cells is ≤ 100 nM; in experiment [1], 100 to 1000 nM.

Take `C=CC(=O)Nc1cc(F)c2c(c1)c(/C=C/c1ccc(Cl)cc1)cn2C` [Compound 37, (E)-N-(3-(4-Chlorostyryl)-7-fluoro-1-methyl-1H-indol-5-yl)acrylamide]: the IC50 is ≤ 100 nM in the experiment on MSTO-211H cells and 100 to 1000 nM in experiment [1].

Consider `C=CC(=O)Nc1cnc2c(c1)c(-c1ccc(C(F)(F)F)cc1)cn2C` [Compound 51, N-(1-Methyl-3-(4-(trifluoromethyl)phenyl)-1H-pyrrolo[2,3-b]pyridin-5-yl)acrylamide], for which the values for the IC50 (in the experiment on MSTO-211H cells; in experiment [1]) were ≤ 100 nM and 1000 to 10000 nM, respectively.

`C=CC(=O)Nc1cnc2c(c1)c(CCC1CCC(F)(F)CC1)cn2C` [Example 64, N-(3-(2-(4,4-Difluorocyclohexyl)ethyl)-1-methyl-1H-pyrrolo[2,3-b]pyridin-5-yl)acrylamide]: the IC50 (with MSTO-211H cells; in experiment [1]) was ≤ 100 nM each time.

`C=CC(=O)N(Cc1ccncc1)c1cnc2c(c1)c(/C=C/c1ccc(Cl)cc1)cn2C` [Example 68, (E)-N-(3-(4-Chlorostyryl)-1-methyl-1H-pyrrolo[2,3-b]pyridin-5-yl)-N-(pyridin-4-ylmethyl)acrylamide] registered an IC50 in the experiment with MSTO-211H cells of 1000 to 10000 nM.

With `Cn1cc(/C=C/c2ccc(Cl)cc2)c2cc(NC(=O)CCl)cnc21` [Example 70, (E)-2-Chloro-N-(3-(4-chlorostyryl)-1-methyl-1H-pyrrolo[2,3-b]pyridin-5-yl) acetamide], the IC50 (with MSTO-211H cells; in experiment [1]) was 1000 to 10000 nM throughout.

Regarding `C=CC(=O)Nc1cnc2ccn(CC3CCCCC3)c2c1` [Example 77, N-(1-(Cyclohexylmethyl)-1H-pyrrolo[3,2-b]pyridin-6-yl)acrylamide], in the experiment with MSTO-211H cells, the 50% inhibitory concentration (IC50) is 100 to 1000 nM.

Regarding `C=CC(=O)Nc1cnc2c(c1)c(/C=C/c1ccc(Cl)s1)cn2C` [Example 81, (E)-N-(3-(2-(5-Chlorothiophen-2-yl)vinyl)-1-methyl-1H-pyrrolo[2,3-b]pyridin-5-yl)acrylamide], the figures for the IC50 (in the experiment with MSTO-211H cells; in experiment [1]) were ≤ 100 nM and 100 to 1000 nM, respectively.

Consider `C=CC(=O)Nc1cnc2c(c1)c(-c1cccc(/C=C/C3CCC(F)(F)CC3)c1)cn2C` [Example 85, (E)-N-(3-(3-(2-(4,4-Difluorocyclohexyl)vinyl)phenyl)-1-methyl-1H-pyrrolo[2,3-b]pyridin-5-yl)acrylamide], for which the IC50 (in the experiment with MSTO-211H cells; in experiment [1]) was 100 to 1000 nM in each case.

In turn, `C=CC(=O)Nc1cnc2c(c1)c(-c1cccc(N3CCCCC3)c1)cn2C` [Example 88, N-(1-Methyl-3-(3-(piperidin-1-yl)phenyl)-1H-pyrrolo[2,3-b]pyridin-5-yl)acrylamide] returned an IC50 in the experiment with MSTO-211H cells of 100 to 1000 nM.

`C=CC(=O)Nc1cnc2c(c1)c(-c1ccc(C(F)(F)F)cc1)cn2CC` [Example 95, N-(1-Ethyl-3-(4-(trifluoromethyl)phenyl)-1H-pyrrolo[2,3-b]pyridin-5-yl)acrylamide]: in the experiment with MSTO-211H cells, the IC50 lay in the range of 100 to 1000 nM.

`C=CC(=O)Nc1cnc2c(c1)c(-c1ccc(C(F)(F)F)cc1)cn2C(C)C` [Example 96, N-(1-isopropyl-3-(4-(trifluoromethyl)phenyl)-1H-pyrrolo[2,3-b]pyridin-5-yl)acrylamide] returned an IC50 with MSTO-211H cells of 100 to 1000 nM.

Take `C=CC(=O)Nc1cnc2c(c1)c(-c1ccc(CCC)cc1)cn2C` [Example 100, N-(1-Methyl-3-(4-propylphenyl)-1H-pyrrolo[2,3-b]pyridin-5-yl)acrylamide]: the half-inhibitory concentration (IC50) in the experiment on MSTO-211H cells was ≤ 100 nM.

Take `C=CC(=O)Nc1cnc2c(c1)c(-c1ccc(F)cc1)cn2C` [Example 103, N-(3-(4-Fluorophenyl)-1-methyl-1H-pyrrolo[2,3-b]pyridin-5-yl)acrylamide]: the IC50 in the experiment on MSTO-211H cells is 100 to 1000 nM.

On to `C=CC(=O)Nc1cnc2c(c1)c(-c1ccc(C)cc1)cn2C` [Example 104, N-(1-Methyl-3-(p-tolyl)-1H-pyrrolo[2,3-b]pyridin-5-yl)acrylamide], for which the IC50 in the experiment with MSTO-211H cells is 100 to 1000 nM.

On to `C=CC(=O)Nc1cnc2c(c1)c(-c1ccc(C3CC3)cc1)cn2C` [Example 106, N-(3-(4-Cyclopropylphenyl)-1-methyl-1H-pyrrolo[2,3-b]pyridin-5-yl)acrylamide], for which the IC50 in the experiment with MSTO-211H cells is ≤ 100 nM; in experiment [1], 100 to 1000 nM.

Take `C=CC(=O)Nc1cnc2c(c1)c(-c1ccc(C(F)(F)F)cc1)cn2C(F)F` [Example 129, N-(1-(Difluoromethyl)-3-(4-(trifluoromethyl)phenyl)-1H-pyrrolo[2,3-b]pyridin-5-yl)acrylamide]: the IC50 in the experiment with MSTO-211H cells was 100 to 1000 nM.
